Here are results for 18 molecules from US12583825B2, “Benzo[h]quinazolin-4-amine and thieno[3,2-h]quinazolin-4-amine derivatives for the treatment of cancer” (Redona Therapeutics, Inc., priority 2020, dated 2026).

Molecules are shown by their SMILES. Some results are limits rather than exact numbers.

In general, IC50 refers to the concentration at which inhibition is half-maximal. As a reminder, the GI50 is the concentration at which growth is held to half of that of the control.

The target in one experiment is T1, recombinant human CLK3 (Homo sapiens, UniProt P49761).
T1 construct: purchased Thermo Fisher Scientific PV3826
In words: CLK3 kinase assay (LANCE Ultra). The experiment is classed as biochemical. The note with it: 0.5 nM CLK3, 300 μM ATP, 3 hours at 30° C. The essentials:
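TR-FRET (LANCE Ultra) read-out of phospho-CREBtide after a 3 h, 30 °C reaction containing 300 μM ATP, 50 nM ULight-CREBtide and 0.5 nM recombinant human CLK3, compounds in 1% DMSO.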
Background: In TR-FRET formats the signal depends on donor and acceptor labels being close together.

The test system of a further experiment is MDA-MB-231 cells. Briefly: MDA-MB-231 proliferation assay. The format is cell-based. The note with it: Homo sapiens, 72 hours, YO-PRO-1 readout. In a few lines:
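Cells seeded at 750/well in DMEM with 10% FBS, treated 72 h at 37 °C, 0.5% DMSO final. Cell number read by YO-PRO-1 fluorescence (485/530 nm), normalised to DMSO (100%) and time-of-addition cells (0%); 4-parameter logistic fit with maximum fixed at 100%.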

Experiment [1] concerns phospho-SRSF6 levels in MDA-MB-468 cells. Briefly: Inhibition of phospho-SRSF6 levels in MDA-MB-468 cells (Western blot). The experiment is classed as cell-based. The note with it: Homo sapiens, 100 nM, 2 hours, normalized by GAPDH, read-out: % Intensity of p-SRSF6 signal at 100 nM compared to DMSO control. The procedure: FIG. 1: FIG. 1 provides a representative Western blot showing reduction of phosphorylated-SRSF6 (P-SRSF6) in MDA-MB 468 cells by compounds of the invention. GAPDH was probed for by Western blotting to control for equal protein loading and for normalization of samples. The numbers below the blots show percent intensity of P-SRSF6 signal at 100 nM compared to DMSO control.
Assessment of Inhibition of Phospho-SRSF6 Levels in MDA-MB-468 Cells
MDA-MB-468 cells (ATCC, HTB-132) were cultured in DMEM (BioConcept cat. no. 1-26F03) supplemented with 10% FBS (Sigma cat. no. F9665), 1% Na-pyruvate (Sigma cat. no. S8636), 1% Penicillin-Streptomycin (BioConcept cat. no. 4-01F00-H). When cells reached a density of 70% in 6-well plates (TPP cat. no. 92006), they were treated either with the test compound vehicle DMSO, or with experimental compounds at a final concentration of 100 nM for 2 hours. Thereafter, the culture medium was removed and cells were collected by scraping in Lysis Buffer (20 mM Tris HCl pH7.5, 150 mM NaCl, 1 mM EGTA, 1 mM EDTA, 1% Triton and 1% NP-40) containing protease and phosphatase inhibitors (Halt™ Protease&Phosphatase inhibitor cocktail 100× ThermoScientific cat. no. 1861281) and 1 mM PMSF (Fluka cat. no. 93482). Cleared lysates were stored in Eppendorf tubes at −80° C. until use, and protein concentration in lysates was determined using Pierce 660 nm Protein Assay Reagent (ThermoScientific cat. no. 22660). 20 μg proteins were diluted in 4× Laemmli buffer (Biorad cat. no. 161-0747) containing 10% beta-mercaptoethanol, separated by SDS-PAGE using 10% gels, and then transferred to PVDF membranes (Trans Blot Turbo Transfer Pack BioRad cat. no. 1704156) by Trans-Blot® Turbo™ System semidry blotting methodology (BioRad). Primary antibodies were incubated in TBS-0.1% Tween-20 buffer containing 3% BSA Bovine Albumin Fr.V (Millipore cat. no. 81-053-3) overnight at 4° C. The following primary antibodies were used: Mouse anti-phosphoepitope SR proteins clone 1H4 (Millipore cat. no. MABE50) diluted 1:5000, and rabbit anti-GAPDH clone 14C10 (Cell Signaling cat. no. 2118S) to control for equal protein loading, diluted 1:2000. HRP-conjugated secondary antibodies were incubated one hour at room temperature diluted 1:5000 in TBS-0.1% Tween-20 buffer containing 5% nonfat-dried bovine milk (Sigma cat. no. M7409). The following secondary antibodies were used: Goat anti-mouse-HRP (Jackson cat. no. 115-035-146) and goat anti-rabbit-HRP (Jackson cat. no. 111-035-144). Membranes were incubated with ECL Prime Western Blot Detection Reagent (Amersham cat. no. RPN2236) to detect specific signals using Fusion SOLO S device (Vilber Lourmat). Pixel intensity of the phopsho-SRSF6 (MW 55 kDa in reference to markers) and GAPDH (MW 37 kDa) signals in the Western blots were determined using Evolution-Capt image analysis software (v17.01, Vilber Lourmat). DMSO control was used to set the phospho-SRSF6 signal at baseline, phospho-SRSF6 signals for each sample were normalized by the respective GAPDH signals and percent intensity of P-SRSF6 signal at 100 nM compound compared to DMSO control was calculated (see FIG. 1).
Background: In western blotting, separated proteins are transferred to a membrane and probed.

T1 sequence (P49761 whole entry): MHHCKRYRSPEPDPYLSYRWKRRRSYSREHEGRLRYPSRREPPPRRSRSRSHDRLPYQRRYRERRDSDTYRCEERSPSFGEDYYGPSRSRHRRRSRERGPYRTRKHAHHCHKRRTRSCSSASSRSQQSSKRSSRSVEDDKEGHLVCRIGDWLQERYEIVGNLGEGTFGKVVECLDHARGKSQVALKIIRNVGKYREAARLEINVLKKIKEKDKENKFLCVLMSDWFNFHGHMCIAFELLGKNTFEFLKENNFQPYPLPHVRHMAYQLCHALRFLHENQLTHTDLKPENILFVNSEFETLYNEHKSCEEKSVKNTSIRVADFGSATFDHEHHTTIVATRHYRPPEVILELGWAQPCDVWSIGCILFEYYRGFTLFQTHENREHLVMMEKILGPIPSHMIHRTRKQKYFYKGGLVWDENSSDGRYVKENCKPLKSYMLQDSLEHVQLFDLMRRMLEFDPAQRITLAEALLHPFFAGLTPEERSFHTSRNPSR

Regarding `CC1(C)/C(=N/OC[C@@H]2CNC(=O)O2)c2cc(O[C@H]3CC[C@H](N)CC3)ccc2-c2ncnc(N)c21` [Example 38, (5S)-5-[[(Z)-[4-amino-8-(trans-4-aminocyclohexoxy)-5,5-dimethyl-benzo[h]quinazolin-6-ylidene]amino]oxymethyl]oxazolidin-2-one], the half-maximal inhibitory concentration (IC50) at recombinant human CLK3 is 4.16 nM. Also, the GI50 in the experiment on MDA-MB-231 cells is > 2000 nM. In addition, in experiment [1], the activity at 0.1 µM stood at 48%.

`COCCO/N=C1\c2cc(O[C@H]3CC[C@@H](N)CC3)ccc2-c2ncnc(N)c2C1(C)C` [Example 82, (6Z)-8-(cis-4-aminocyclohexoxy)-6-(2-methoxyethoxyimino)-5,5-dimethyl-benzo[h]quinazolin-4-amine]: the IC50 at recombinant human CLK3 stood at 9.7 nM. For the same molecule, the GI50 with MDA-MB-231 cells stood at 98.5 nM. Further, in experiment [1], the activity at 0.1 µM was 15%.

For the molecule `CC1(C)/C(=N/OCCC#N)c2cc(O[C@H]3CC[C@@H](N)CC3)ccc2-c2ncnc(N)c21` [Example 83, 3-[(Z)-[4-amino-8-(cis-4-aminocyclohexoxy)-5,5-dimethyl-benzo[h]quinazolin-6-ylidene]amino]oxypropanenitrile], the 50% inhibitory concentration (IC50) at recombinant human CLK3 was 4.9 nM. Further, in the experiment with MDA-MB-231 cells, the GI50 was 96.2 nM. In experiment [1], the activity at 0.1 µM was determined as 9%.

With `COc1ccc2c(c1)/C(=N\OCCCC#N)C(C)(C)c1c(N)ncnc1-2` [Example 6, 4-[(Z)-(4-amino-8-methoxy-5,5-dimethyl-benzo[h]quinazolin-6-ylidene)amino]oxybutanenitrile], the IC50 at recombinant human CLK3 came to 32.1 nM. Besides, the GI50 in the experiment with MDA-MB-231 cells is > 2000 nM. For the same molecule, in experiment [1], the activity at 0.1 µM is 41%.

With `C#CCO/N=C1\c2cc(O[C@H]3CC[C@H](N)CC3)ccc2-c2ncnc(N)c2C1(C)C` [Example 21, (6Z)-8-(trans-4-aminocyclohexoxy)-5,5-dimethyl-6-prop-2-ynoxyimino-benzo[h]quinazolin-4-amine], the IC50 at recombinant human CLK3 was found to be 27.2 nM. The GI50 in the experiment on MDA-MB-231 cells turned out to be 569 nM. Further, in experiment [1], the activity at 0.1 µM turned out to be 12%.

Regarding `COCCN1C[C@@H](CO/N=C2\c3cc(Br)ccc3-c3ncnc(N)c3C2(C)C)OC1=O` [Example 90, (5S)-5-[[(Z)-(4-amino-8-bromo-5,5-dimethyl-benzo[h]quinazolin-6-ylidene)amino]oxymethyl]-3-(2-methoxyethyl)oxazolidin-2-one], the IC50 on recombinant human CLK3 turned out to be 9.37 nM. Moreover, the GI50 in the experiment on MDA-MB-231 cells stood at 863 nM. For the same molecule, the activity at 0.1 µM in experiment [1] stood at 29%.

Regarding `COc1ccc2c(c1)/C(=N\OC[C@@H]1CNC(=O)O1)C(C)(C)c1c(N)ncnc1-2` [Example 13, (5S)-5-[[(Z)-(4-amino-8-methoxy-5,5-dimethyl-benzo[h]quinazolin-6-ylidene)amino]oxymethyl]oxazolidin-2-one], on recombinant human CLK3, the IC50 is 4.3 nM. Further, the GI50 in the experiment with MDA-MB-231 cells turned out to be 1200 nM. The activity at 0.1 µM in experiment [1] is 28%.

As for `CO/N=C1\c2cc(CC3CCNCC3)ccc2-c2ncnc(N)c2C1(C)C` [Example 70, (6Z)-6-methoxyimino-5,5-dimethyl-8-(4-piperidylmethyl)benzo[h]quinazolin-4-amine], the IC50 at recombinant human CLK3 came to 9.1 nM. Moreover, the GI50 in the experiment on MDA-MB-231 cells was found to be 630 nM. Besides, the activity at 0.1 µM in experiment [1] is 34%.

In the case of `CC(F)(F)CCO/N=C1\c2cc(O[C@H]3CC[C@@H](N)CC3)ccc2-c2ncnc(N)c2C1(C)C` [Example 115, (6Z)-8-(cis-4-aminocyclohexoxy)-6-(3,3-difluorobutoxyimino)-5,5-dimethyl-benzo[h]quinazolin-4-amine], the IC50 at recombinant human CLK3 came to 19.4 nM. Moreover, the 50% growth inhibitory concentration (GI50) in the experiment on MDA-MB-231 cells came out at 102 nM. In addition, in experiment [1], the activity at 0.1 µM is 17%.

`CC1(C)/C(=N/OC[C@@H]2CN(CCO)C(=O)O2)c2cc(I)ccc2-c2ncnc(N)c21` [Example 97, (5S)-5-[[(Z)-(4-amino-8-iodo-5,5-dimethyl-benzo[h]quinazolin-6-ylidene)amino]oxymethyl]-3-(2-hydroxyethyl)oxazolidin-2-one]: the IC50 at recombinant human CLK3 stood at 1.7 nM. For the same molecule, the GI50 in the experiment with MDA-MB-231 cells was 158 nM. The activity at 0.1 µM in experiment [1] is 21%.

In the case of `CN1C[C@@H](CO/N=C2\c3cc(O[C@H]4CC[C@@H](N)CC4)ccc3-c3ncnc(N)c3C2(C)C)OC1=O` [Example 88, (5S)-5-[[(Z)-[4-amino-8-(cis-4-aminocyclohexoxy)-5,5-dimethyl-benzo[h]quinazolin-6-ylidene]amino]oxymethyl]-3-methyl-oxazolidin-2-one], on recombinant human CLK3, the half-maximal inhibitory concentration (IC50) turned out to be 8.8 nM. Besides, the activity at 0.1 µM in experiment [1] worked out at 21%.

On to `CC1(C)/C(=N/OC[C@@H]2CN(CCO)C(=O)O2)c2cc(Br)ccc2-c2ncnc(N)c21` [Example 91, (5S)-5-[[(Z)-(4-amino-8-bromo-5,5-dimethyl-benzo[h]quinazolin-6-ylidene)amino]oxymethyl]-3-(2-hydroxyethyl)oxazolidin-2-one], for which the IC50 on recombinant human CLK3 came to 5.1 nM. The GI50 in the experiment on MDA-MB-231 cells stood at 459 nM. Also, the activity at 0.1 µM in experiment [1] is 15%.

`N#CCCO/N=C1\c2cc(O[C@H]3CC[C@@H](N)CC3)ccc2-c2ncnc(N)c2C12CCCC2` [Example 101, 3-[(Z)-[4-amino-8-(cis-4-aminocyclohexoxy)spiro[benzo[h]quinazoline-5,1′-cyclopentane]-6-ylidene]amino]oxypropanenitrile]: the half-inhibitory concentration (IC50) at recombinant human CLK3 turned out to be 1.2 nM. The GI50 with MDA-MB-231 cells worked out at 4.5 nM. In experiment [1], the activity at 0.1 µM was 8%.

For `C=C(c1ccc2c(c1)/C(=N\OC)C(C)(C)c1c(N)ncnc1-2)[C@H]1CC[C@H](N)CC1` [Example 4, (6Z)-8-[1-(trans-4-aminocyclohexyl)vinyl]-6-methoxyimino-5,5-dimethyl-benzo[h]quinazolin-4-amine], the IC50 at recombinant human CLK3 was 2.1 nM. The concentration for 50% growth inhibition (GI50) in the experiment on MDA-MB-231 cells is 271 nM. The activity at 0.1 µM in experiment [1] came to 32%.

As for `CO/N=C1\c2cc(OC)ccc2-c2ncnc(N)c2C1(C)C` [Example 40, (6Z)-8-methoxy-6-methoxyimino-5,5-dimethyl-benzo[h]quinazolin-4-amine], on recombinant human CLK3, the concentration for half-maximal inhibition (IC50) was 21.7 nM. For the same molecule, the GI50 with MDA-MB-231 cells was > 2000 nM. The activity at 0.1 µM in experiment [1] amounted to 45%.

Regarding `CC(C)(C#N)CCO/N=C1\c2cc(O[C@H]3CC[C@@H](N)CC3)ccc2-c2ncnc(N)c2C1(C)C` [Example 111, 4-[(Z)-[4-amino-8-(cis-4-aminocyclohexoxy)-5,5-dimethyl-benzo[h]quinazolin-6-ylidene]amino]oxy-2,2-dimethyl-butanenitrile], the GI50 in the experiment on MDA-MB-231 cells was 106 nM. In addition, in experiment [1], the activity at 0.1 µM was determined as 16%.

Consider `CCOCCO/N=C1\c2cc(O[C@H]3CC[C@@H](N)CC3)ccc2-c2ncnc(N)c2C1(C)C` [Example 109, (6Z)-8-(cis-4-aminocyclohexoxy)-6-(2-ethoxyethoxyimino)-5,5-dimethyl-benzo[h]quinazoline-4-amine], for which the GI50 in the experiment with MDA-MB-231 cells amounted to 156 nM. In addition, in experiment [1], the activity at 0.1 µM worked out at 21%.

On to `COCCO/N=C1\c2cc(O[C@H]3CC[C@H](N)CC3)ccc2-c2ncnc(N)c2C12CCCC2` [Example 99, (6Z)-8-(trans-4-aminocyclohexoxy)-6-(2-methoxyethoxyimino)spiro[benzo[h]quinazoline-5,1′-cyclopentane]-4-amine], for which the IC50 on recombinant human CLK3 is 5.8 nM. For the same molecule, in the experiment on MDA-MB-231 cells, the GI50 was 27.6 nM. Also, the activity at 0.1 µM in experiment [1] came out at 17%.
